Laboratory results as given in patent US20120039981A1, “Chewing Gum And Particulate Material For Controlled Release Of Active Ingredients” (priority 2009, published 2012).
Where two headings read alike, the source gives them in different places.

From the text: Absorption of nicotine from the oral cavity to the systemic circulation is dependent on the pH of the saliva and the […] of nicotine, which is about 7.8. Assuming a pH of the saliva of 6.8 only about 10% of the nicotine in saliva will be in the free base form. Thus, in order to promote absorption of nicotine in a free base form, which is the form predomi-nantly absorbed through the mucosa, the pH of the saliva must be increased. At a pH of 8.8 about 90% of the nicotine in saliva will then be in the free base form.

**Q.** With CN1CCCC1c1cccnc1 (centres unmarked) [nicotine, 3-(1-methyl-2-pyrrolidinyl)-pyridine] as the molecule, how does the “nicotine in saliva in the free base form” value (saliva pH 6.8) read?
**A.** about 10%

**Q.** What about the “nicotine in saliva in the free base form” value (saliva pH 8.8) of the same molecule?
**A.** about 90%
